From ChEMBL document CHEMBL1128091, “Ly316340: A potent HIV-1 protease inhibitor containing a high affinity octahydrothienopyridine hydroxyethylamine isostere” (Bioorg Med Chem Lett, 1995)

Assays:
Rattus norvegicus = assay: (§1) Cmax value was evaluated in rats at a dose of 20 mg/kg; format: ADME, organism-based; set-up: dose 20 mg/kg; conditions: in vivo
[1] = as §1; format: ADME, organism-based; set-up: dose 20 mg/kg; conditions: rat, in vivo
[2] = Bioavailability was evaluated in rats at a dose of 20 mg/kg, under fasting state; format: ADME, organism-based; conditions: rat, in vivo
[3] = Bioavailability was evaluated in rats at a dose of 20 mg/kg, under fed state; format: ADME, organism-based; conditions: rat, in vivo
CEM-SS [4] = assay: (§2) Inhibitory concentration required for antiviral activity against HXB-2 infected CEM-SS cells; format: functional, cell-based; conditions: Homo sapiens
CEM-SS [5] = assay: as §2; format: functional; conditions: Homo sapiens
[6] = molecular target: Human immunodeficiency virus type 1 protease (Human immunodeficiency virus 1, UniProt Q72874); assay: Inhibitory concentration required against HIV-1 protease

| Structure (SMILES) | IC50 (CEM-SS [4]) | IC95 (CEM-SS [5]) | IC50 [6] | further results |
| --- | --- | --- | --- | --- |
| CS(=O)(=O)O.Cc1c(O)cccc1C(=O)N[C@@H](CSc1ccccc1)[C@H](O)CN1C[C@H]2CCS[C@H]2C[C@H]1C(=O)NC(C)(C)C | – | – | – | Cmax (Rattus norvegicus): 1000 nM; Cmax [1]: 1400 nM; bioavailability [2]: 22%; bioavailability [3]: 19% |
| CC(C)(C)NC(=O)[C@@H]1C[C@@H]2CCCC[C@@H]2CN1C[C@@H](O)[C@H](Cc1ccccc1)NC(=O)[C@H](CC(N)=O)NC(=O)c1ccc2ccccc2n1 | 6.6 nM | 21 nM | – | – |
| Cc1c(O)cccc1C(=O)N[C@@H](CSc1ccccc1)[C@H](O)CN1C[C@H]2CCS[C@H]2C[C@H]1C(=O)NC(C)(C)C | 5.1 nM | 18 nM | 0.3 nM | – |
| CC(C)(C)NC(=O)[C@@H]1C[C@@H]2SCC[C@@H]2CN1C[C@@H](O)[C@H](Cc1ccccc1)NC(=O)OCc1ccccc1 | – | – | 6.6 nM | – |
| Cc1c(O)cccc1C(=O)N[C@@H](Cc1ccccc1)[C@H](O)CN1C[C@H]2CCS[C@H]2C[C@H]1C(=O)NC(C)(C)C | 24 nM | 1360 nM | 0.5 nM | – |
| CC(C)(C)NC(=O)[C@@H]1C[C@@H]2CCCC[C@@H]2CN1C[C@@H](O)[C@H](Cc1ccccc1)NC(=O)OCc1ccccc1 | – | – | 127 nM | – |
| Cc1c(O)cccc1C(=O)N[C@@H](Cc1ccccc1)[C@H](O)CN1C[C@H]2CCCC[C@H]2C[C@H]1C(=O)NC(C)(C)C | 33 nM | 135 nM | 13 nM | – |
